Patent US20260001888A1, “PYRAZOLOPYRIMIDINE PDE9 INHIBITORS” (Merck Sharp & Dohme LLC, priority 2018, published 2026)

Target: Human PDE9 (PDE9A2) (Homo sapiens (Human), UniProt O76083)
Experiment: PDE9 IMAP fluorescence polarization (FP) inhibition assay
Format: biochemical
Details: apparent inhibition constant; human PDE9A2, FAM-cGMP substrate 50 nM, room temperature
Method in brief: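 N-terminal GST-tagged full-length PDE9A2 membrane prep (0.5 ng/ml final) preincubated 30 min with compound at room temperature, then 50 nM FAM-cGMP added for 60 min; IMAP binding reagent stops reaction, FP read after 1 h. Controls: known PDE9 inhibitor (100%), 1% DMSO (0%). KI from four-parameter fit.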

Sequence of Human PDE9 (PDE9A2) (O76083 other isoform, or with tags, fused parts or gaps): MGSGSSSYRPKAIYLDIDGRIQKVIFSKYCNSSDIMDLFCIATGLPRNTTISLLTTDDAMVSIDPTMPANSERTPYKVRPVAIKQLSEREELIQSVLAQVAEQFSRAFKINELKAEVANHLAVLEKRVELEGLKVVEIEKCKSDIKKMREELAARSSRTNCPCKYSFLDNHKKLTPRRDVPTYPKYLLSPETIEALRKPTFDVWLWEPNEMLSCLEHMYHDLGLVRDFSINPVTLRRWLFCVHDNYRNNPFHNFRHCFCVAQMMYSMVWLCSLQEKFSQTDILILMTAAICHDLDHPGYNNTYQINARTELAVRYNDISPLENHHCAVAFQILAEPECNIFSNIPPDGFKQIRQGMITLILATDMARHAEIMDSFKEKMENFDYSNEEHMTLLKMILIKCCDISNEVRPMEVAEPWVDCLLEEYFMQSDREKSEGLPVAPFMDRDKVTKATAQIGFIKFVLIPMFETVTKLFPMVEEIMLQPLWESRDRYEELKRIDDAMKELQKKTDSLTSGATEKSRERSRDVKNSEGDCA

Ki [nM] | Structure (SMILES)
11.9 | CCC(Nc1nc2c(c(C#N)nn2C(C)c2ccc(C(F)(F)F)nc2)c(=O)[nH]1)c1ncccn1 (single isomer, unassigned) [Example 71, 4-Oxo-6-((1-(pyrimidin-2-yl)propyl)amino)-1-(1-(6-(trifluoromethyl)pyridin-3-yl)ethyl)-4,5-dihydro-1H-pyrazolo[3,4-d]pyrimidine-3-carbonitrile]
21.9 | CCC(Nc1nc2c(c(C#N)nn2C(C)c2ccc(C(F)(F)F)nc2)c(=O)[nH]1)c1ncccn1 (single isomer, unassigned) [Example 72, 4-Oxo-6-((1-(pyrimidin-2-yl)propyl)amino)-1-(1-(6-(trifluoromethyl)pyridin-3-yl)ethyl)-4,5-dihydro-1H-pyrazolo[3,4-d]pyrimidine-3-carbonitrile]
0.25 | CCC(Nc1nc2c(c(C#N)nn2C(C)c2ccc(C(F)(F)F)nc2)c(=O)[nH]1)c1ncccn1 (single isomer, unassigned) [Example 73, 4-Oxo-6-((1-(pyrimidin-2-yl)propyl)amino)-1-(1-(6-(trifluoromethyl)pyridin-3-yl)ethyl)-4,5-dihydro-1H-pyrazolo[3,4-d]pyrimidine-3-carbonitrile]
11.4 | CCC(Nc1nc2c(c(C#N)nn2C(C)c2ccc(C(F)(F)F)nc2)c(=O)[nH]1)c1ncccn1 (single isomer, unassigned) [Example 74, 4-Oxo-6-((1-(pyrimidin-2-yl)propyl)amino)-1-(1-(6-(trifluoromethyl)pyridin-3-yl)ethyl)-4,5-dihydro-1H-pyrazolo[3,4-d]pyrimidine-3-carbonitrile]
3.31 | CCC(c1ncc(F)cn1)N(C)c1nc2c(c(C#N)nn2C(C)c2ccc(C(F)(F)F)nc2)c(=O)[nH]1 (single isomer, unassigned) [Example 75, 6-((1-(5-fluoropyrimidin-2-yl)propyl)(methyl)amino)-4-oxo-1-(1-(6-(trifluoromethyl)pyridin-3-yl)ethyl)-4,5-dihydro-1H-pyrazolo[3,4-d]pyrimidine-3-carbonitrile]
55.1 | CCC(c1ncc(F)cn1)N(C)c1nc2c(c(C#N)nn2C(C)c2ccc(C(F)(F)F)nc2)c(=O)[nH]1 (single isomer, unassigned) [Example 76, 6-((1-(5-fluoropyrimidin-2-yl)propyl)(methyl)amino)-4-oxo-1-(1-(6-(trifluoromethyl)pyridin-3-yl)ethyl)-4,5-dihydro-1H-pyrazolo[3,4-d]pyrimidine-3-carbonitrile]
0.27 | CCC(c1ncc(F)cn1)N(C)c1nc2c(c(C#N)nn2C(C)c2ccc(C(F)(F)F)nc2)c(=O)[nH]1 (single isomer, unassigned) [Example 77, 6-((1-(5-fluoropyrimidin-2-yl)propyl)(methyl)amino)-4-oxo-1-(1-(6-(trifluoromethyl)pyridin-3-yl)ethyl)-4,5-dihydro-1H-pyrazolo[3,4-d]pyrimidine-3-carbonitrile]
34.2 | CCC(c1ncc(F)cn1)N(C)c1nc2c(c(C#N)nn2C(C)c2ccc(C(F)(F)F)nc2)c(=O)[nH]1 (single isomer, unassigned) [Example 78, 6-((1-(5-fluoropyrimidin-2-yl)propyl)(methyl)amino)-4-oxo-1-(1-(6-(trifluoromethyl)pyridin-3-yl)ethyl)-4,5-dihydro-1H-pyrazolo[3,4-d]pyrimidine-3-carbonitrile]
3.96 | CC(c1ccc(C(F)(F)F)nc1)n1nc(C#N)c2c(=O)[nH]c(CCc3ncccn3)nc21 (single isomer, unassigned) [Example 79, 4-oxo-6-(2-(pyrimidin-2-yl)ethyl)-1-(1-(6-(trifluoromethyl)pyridin-3-yl)ethyl)-4,5-dihydro-1H-pyrazolo[3,4-d]pyrimidine-3-carbonitrile]
120 | CC(c1ccc(C(F)(F)F)nc1)n1nc(C#N)c2c(=O)[nH]c(CCc3ncccn3)nc21 (single isomer, unassigned) [Example 80, 4-oxo-6-(2-(pyrimidin-2-yl)ethyl)-1-(1-(6-(trifluoromethyl)pyridin-3-yl)ethyl)-4,5-dihydro-1H-pyrazolo[3,4-d]pyrimidine-3-carbonitrile]
0.5 | CC(c1ccc(C(F)(F)F)nc1)n1nc(C#N)c2c(=O)[nH]c(CCc3ncc(C4CC4)cn3)nc21 (single isomer, unassigned) [Example 81, 6-(2-(5-cyclopropylpyrimidin-2-yl)ethyl)-4-oxo-1-(1-(6-(trifluoromethyl)pyridin-3-yl)ethyl)-4,5-dihydro-1H-pyrazolo[3,4-d]pyrimidine-3-carbonitrile]
16.2 | CC(c1ccc(C(F)(F)F)nc1)n1nc(C#N)c2c(=O)[nH]c(CCc3ncc(C4CC4)cn3)nc21 (single isomer, unassigned) [Example 82, 6-(2-(5-cyclopropylpyrimidin-2-yl)ethyl)-4-oxo-1-(1-(6-(trifluoromethyl)pyridin-3-yl)ethyl)-4,5-dihydro-1H-pyrazolo[3,4-d]pyrimidine-3-carbonitrile]
60.7 | CC(Cc1nc2c(c(C#N)nn2C(C)c2ccc(C(F)(F)F)nc2)c(=O)[nH]1)c1ncccn1 (single isomer, unassigned) [Example 83, 4-oxo-6-(2-(pyrimidin-2-yl)propyl)-1-(1-(6-(trifluoromethyl)pyridin-3-yl)ethyl)-4,5-dihydro-1H-pyrazolo[3,4-d]pyrimidine-3-carbonitrile]
111 | CC(Cc1nc2c(c(C#N)nn2C(C)c2ccc(C(F)(F)F)nc2)c(=O)[nH]1)c1ncccn1 (single isomer, unassigned) [Example 84, 4-oxo-6-(2-(pyrimidin-2-yl)propyl)-1-(1-(6-(trifluoromethyl)pyridin-3-yl)ethyl)-4,5-dihydro-1H-pyrazolo[3,4-d]pyrimidine-3-carbonitrile]
1.17 | CC(Cc1nc2c(c(C#N)nn2C(C)c2ccc(C(F)(F)F)nc2)c(=O)[nH]1)c1ncccn1 (single isomer, unassigned) [Example 85, 4-oxo-6-(2-(pyrimidin-2-yl)propyl)-1-(1-(6-(trifluoromethyl)pyridin-3-yl)ethyl)-4,5-dihydro-1H-pyrazolo[3,4-d]pyrimidine-3-carbonitrile]
33.4 | CC(Cc1nc2c(c(C#N)nn2C(C)c2ccc(C(F)(F)F)nc2)c(=O)[nH]1)c1ncccn1 (single isomer, unassigned) [Example 86, 4-oxo-6-(2-(pyrimidin-2-yl)propyl)-1-(1-(6-(trifluoromethyl)pyridin-3-yl)ethyl)-4,5-dihydro-1H-pyrazolo[3,4-d]pyrimidine-3-carbonitrile]
93.4 | CCC(Cc1nc2c(c(C#N)nn2C(C)c2ccc(C(F)(F)F)nc2)c(=O)[nH]1)c1ncccn1 (single isomer, unassigned) [Example 87, 4-oxo-6-(2-(pyrimidin-2-yl)butyl)-1-(1-(6-(trifluoromethyl)pyridin-3-yl)ethyl)-4,5-dihydro-1H-pyrazolo[3,4-d]pyrimidine-3-carbonitrile]
108 | CCC(Cc1nc2c(c(C#N)nn2C(C)c2ccc(C(F)(F)F)nc2)c(=O)[nH]1)c1ncccn1 (single isomer, unassigned) [Example 88, 4-oxo-6-(2-(pyrimidin-2-yl)butyl)-1-(1-(6-(trifluoromethyl)pyridin-3-yl)ethyl)-4,5-dihydro-1H-pyrazolo[3,4-d]pyrimidine-3-carbonitrile]
0.24 | CCC(Cc1nc2c(c(C#N)nn2C(C)c2ccc(C(F)(F)F)nc2)c(=O)[nH]1)c1ncccn1 (single isomer, unassigned) [Example 89, 4-oxo-6-(2-(pyrimidin-2-yl)butyl)-1-(1-(6-(trifluoromethyl)pyridin-3-yl)ethyl)-4,5-dihydro-1H-pyrazolo[3,4-d]pyrimidine-3-carbonitrile]
28 | CCC(Cc1nc2c(c(C#N)nn2C(C)c2ccc(C(F)(F)F)nc2)c(=O)[nH]1)c1ncccn1 (single isomer, unassigned) [Example 90, 4-oxo-6-(2-(pyrimidin-2-yl)butyl)-1-(1-(6-(trifluoromethyl)pyridin-3-yl)ethyl)-4,5-dihydro-1H-pyrazolo[3,4-d]pyrimidine-3-carbonitrile]
